Laboratory results reported in patent US20240425517A1, “NOVEL COMPOUND FOR DEGRADATION OF TARGET PROTEIN OR POLYPEPTIDE BY POLYUBIQUITINATION” (PRAZER THERAPEUTICS INC., priority 2021, published 2024).

Target: T1, BRD4 proteins (Homo sapiens, UniProt O60885)
T1 construct: endogenous in cells; host or cells: MM.1S
Assay: Degradation of BRD4 protein in MM.1S cell lines (Western blot densitometry)
Type: cell-based
Settings: MM.1S cells, 10 μM, 24 hours
Procedure: To confirm that the compounds (BRD4 degraders) of Preparation Examples I′ to IV′ reduce the amount of BRD4 proteins, experiments were performed using MM.1S cell lines, which are B cells derived from the blood of multiple myeloma patients.
Specifically, the MM.1S cells were cultured in RPMI-1640 medium supplemented with 10% fetal bovine serum and Penicillin/Streptomycin (100 U/mL), transferred to a 6-well plate, and after 24 hours, the BRD4 degraders were diluted in the culture medium and the cells were treated with 10 μM each. After treatment, the cells were incubated in a C02 incubator for 24 hours. Through protein immunoblotting (Western Blot), the degrading capacity of each compound against BRD4 proteins in cells was confirmed. After cell culture was completed according to the experimental conditions, the cells were collected and centrifuged at 1,800 rpm for 3 minutes. The cells in the precipitate were lysed with RIPA (25 mM Tris-HCl pH 7.6, 150 mM NaCl, 1% NP-40, 1% sodium deoxycholate, 0.1% SDS, 1× Protease Inhibitor Cocktail), 5× sample buffer was added, and then heated at 100° C. for 15 minutes. The prepared sample was electrophoresed with sodium dodecyl sulfate poly acrylamide gel electrophoresis (SDS-PAGE), and then the proteins in the gel were transferred to a PVDF membrane using Trans-Blot Turbo. The membrane was treated with a 5% bovine serum albumin (BSA) solution and blocked at room temperature for 2 hours, and then BRD4 and R-actin antibodies were diluted in the 5% BSA solution to react with the membrane at 4° C. overnight. After washed with PBST (0.5% Tween20) 5 times, horse radish peroxidase (HRP)-conjugated secondary antibodies were diluted in PBST to react at room temperature for 2 hours, and then washed again with a PBST solution 5 times. After enzyme-substrate reaction was carried out using a HRP substrate, a signal was measured with chemi-doc equipment, and the densitometry of a band corresponding to the BRD4 protein detected in the Preparation Example Compounds was quantitatively analyzed. The case when the degrading capacity of each BRD4 degrader was reduced by less than 40% is indicated as +, the case when the degrading capacity was reduced by 40% to 70% (exclusive of 70) is indicated as ++, the case when the degrading capacity was reduced by 70% or more is indicated as +++ in Tables 16 to 19 below. As shown in the following Tables, it was confirmed that the compounds of Preparation Examples I′ to IV′ according to the present invention have excellent degrading capacity.

Row | SMILES | BRD4 degrading capacity (%)
1 | Cc1sc2c(c1C)C(c1ccc(Cl)cc1)=N[C@@H](CC(=O)Nc1cccc(C#CCN)c1)c1nnc(C)n1-2.Cl [1-3′, (S)—N-(3-(3-aminoprop-1-yn-1-yl)phenyl)-2-(4-(4-chlorophenyl)-2,3,9-trimethyl-6H-thieno[3,2-f][1,2,4]triazolo[4,3-a][1,4]diazepin-6-yl)acetamide hydrochloride] | ++ (the degrading capacity was reduced by 40% to 70% (exclusive of 70))
2 | COC(=O)c1cc(N2CCN(C(=O)CCNC(=O)C[C@@H]3N=C(c4ccc(Cl)cc4)c4c(sc(C)c4C)-n4c(C)nnc43)CC2)ccc1C#CCN.Cl [5-33′, methyl (S)-2-(3-aminoprop-1-yn-1-yl)-5-(4-(3-(2-(4-(4-chlorophenyl)-2,3,9-trimethyl-6H-thieno[3,2-f][1,2,4]triazolo[4,3-a][1,4]diazepin-6-yl)acetamido)propanoyl)piperazin-1-yl)benzoate hydrochloride] | ++ (the degrading capacity was reduced by 40% to 70% (exclusive of 70))
3 | Cc1sc2c(c1C)C(c1ccc(Cl)cc1)=N[C@@H](CC(=O)NCC#CCNC(=O)c1ccc(C#CCN)o1)c1nnc(C)n1-2.Cl [4-148′, (S)-5-(3-aminoprop-1-yn-1-yl)-N-(4-(2-(4-(4-chlorophenyl)-2,3,9-trimethyl-6H-thieno[3,2-f][1,2,4]triazolo[4,3-a][1,4]diazepin-6-yl)acetamido)but-2-yn-1-yl)furan-2-carboxamide hydrochloride] | + (the degrading capacity of each BRD4 degrader was reduced by less than 40%)
4 | Cc1sc2c(c1C)C(c1ccc(Cl)cc1)=N[C@@H](CC(=O)NCCCC(=O)Nc1ccc(F)c(C#CCN)c1)c1nnc(C)n1-2.Cl [5-77′, (S)—N-(3-(3-aminoprop-1-yn-1-yl)-4-fluorophenyl)-4-(2-(4-(4-chlorophenyl)-2,3,9-trimethyl-6H-thieno[3,2-f][1,2,4]triazolo[4,3-a][1,4]diazepin-6-yl)acetamido)butanamide hydrochloride] | + (the degrading capacity of each BRD4 degrader was reduced by less than 40%)
5 | COC(=O)c1ccc(N2CCN(CC3CCN(C(=O)C[C@@H]4N=C(c5ccc(Cl)cc5)c5c(sc(C)c5C)-n5c(C)nnc54)CC3)CC2)cc1C#CCN.Cl [5-29′, methyl (S)-2-(3-aminoprop-1-yn-1-yl)-4-(4-((1-(2-(4-(4-chlorophenyl)-2,3,9-trimethyl-6H-thieno[3,2-f][1,2,4]triazolo[4,3-a][1,4]diazepin-6-yl)acetyl)piperidin-4-yl)methyl)piperazin-1-yl)benzoate hydrochloride] | +++ (the degrading capacity was reduced by 70% or more)
6 | Cc1sc2c(c1C)C(c1ccc(Cl)cc1)=N[C@@H](CC(=O)Nc1ccc(C#CC(N)COP(=O)(O)O)cc1)c1nnc(C)n1-2 (stereo partly drawn) [3-57′, 2-amino-4-(4-(2-((S)-4-(4-chlorophenyl)-2,3,9-trimethyl-6H-thieno[3,2-f][1,2,4]triazolo[4,3-a][1,4]diazepin-6-yl)acetamido)phenyl)but-3-yn-1-yl dihydrogen phosphate trifluoroacetic acid] | ++ (the degrading capacity was reduced by 40% to 70% (exclusive of 70))
7 | Cc1sc2c(c1C)C(c1ccc(Cl)cc1)=N[C@@H](CC(=O)Nc1cccc(C#CC(N)CO)c1)c1nnc(C)n1-2.Cl (stereo partly drawn) [3-51′, N-(3-(3-amino-4-hydroxybut-1-yn-1-yl)phenyl)-2-((S)-4-(4-chlorophenyl)-2,3,9-trimethyl-6H-thieno[3,2-f][1,2,4]triazolo[4,3-a][1,4]diazepin-6-yl)acetamide hydrochloride] | +++ (the degrading capacity was reduced by 70% or more)
8 | COC(=O)c1ccc(C(=O)N2CCN(C(=O)C[C@@H]3N=C(c4ccc(Cl)cc4)c4c(sc(C)c4C)-n4c(C)nnc43)CC2)cc1C#CCN.Cl [5-140′, methyl (S)-2-(3-aminoprop-1-yn-1-yl)-4-(4-(2-(4-(4-chlorophenyl)-2,3,9-trimethyl-6H-thieno[3,2-f][1,2,4]triazolo[4,3-a][1,4]diazepin-6-yl)acetyl)piperazine-1-carbonyl)benzoate hydrochloride] | +++ (the degrading capacity was reduced by 70% or more)
9 | COC(=O)c1ccc(C#CCNC(=O)C[C@@H]2N=C(c3ccc(Cl)cc3)c3c(sc(C)c3C)-n3c(C)nnc32)cc1C#CCN.Cl [5-116′, methyl (S)-2-(3-aminoprop-1-yn-1-yl)-4-(3-(2-(4-(4-chlorophenyl)-2,3,9-trimethyl-6H-thieno[3,2-f][1,2,4]triazolo[4,3-a][1,4]diazepin-6-yl)acetamido)prop-1-yn-1-yl)benzoate hydrochloride] | +++ (the degrading capacity was reduced by 70% or more)
10 | COc1ccc(NC(=O)CCCNC(=O)C[C@@H]2N=C(c3ccc(Cl)cc3)c3c(sc(C)c3C)-n3c(C)nnc32)cc1C#CCN [5-63′, (S)—N-(3-(3-aminoprop-1-yn-1-yl)-4-methoxyphenyl)-4-(2-(4-(4-chlorophenyl)-2,3,9-trimethyl-6H-thieno[3,2-f][1,2,4]triazolo[4,3-a][1,4]diazepin-6-yl)acetamido)butanamide trifluoroacetic acid] | ++ (the degrading capacity was reduced by 40% to 70% (exclusive of 70))
11 | COC(=O)c1ccc(NC(=O)CCCN(C)C(=O)C[C@@H]2N=C(c3ccc(Cl)cc3)c3c(sc(C)c3C)-n3c(C)nnc32)cc1C#CCN.Cl [5-149′, methyl (S)-2-(3-aminoprop-1-yn-1-yl)-4-(4-(2-(4-(4-chlorophenyl)-2,3,9-trimethyl-6H-thieno[3,2-f][1,2,4]triazolo[4,3-a][1,4]diazepin-6-yl)-N-methylacetamido)butanamido)benzoate hydrochloride] | +++ (the degrading capacity was reduced by 70% or more)
12 | Cc1sc2c(c1C)C(c1ccc(Cl)cc1)=N[C@@H](CC(=O)NCCCC(=O)Nc1ccc(C#CCN)c(CO)c1)c1nnc(C)n1-2.Cl [5-8′, (S)—N-(4-(3-aminoprop-1-yn-1-yl)-3-(hydroxymethyl)phenyl)-4-(2-(4-(4-chlorophenyl)-2,3,9-trimethyl-6H-thieno[3,2-f][1,2,4]triazolo[4,3-a][1,4]diazepin-6-yl)acetamido)butanamide hydrochloride] | ++ (the degrading capacity was reduced by 40% to 70% (exclusive of 70))
13 | COC(=O)c1ccc(NC(=O)CCCC(=O)OCC[C@@H]2N=C(c3ccc(Cl)cc3)c3c(sc(C)c3C)-n3c(C)nnc32)cc1C#CCN.Cl [5-106′, methyl (S)-2-(3-aminoprop-1-yn-1-yl)-4-(5-(2-(4-(4-chlorophenyl)-2,3,9-trimethyl-6H-thieno[3,2-f][1,2,4]triazolo[4,3-a][1,4]diazepin-6-yl)ethoxy)-5-oxopentanamido)benzoate hydrochloride] | + (the degrading capacity of each BRD4 degrader was reduced by less than 40%)
14 | Cc1sc2c(c1C)C(c1ccc(Cl)cc1)=N[C@@H](CC(=O)Nc1ccc(C#CCN)c(CO)c1)c1nnc(C)n1-2.Cl [3-3′, (S)—N-(4-(3-aminoprop-1-yn-1-yl)-3-(hydroxymethyl)phenyl)-2-(4-(4-chlorophenyl)-2,3,9-trimethyl-6H-thieno[3,2-f][1,2,4]triazolo[4,3-a][1,4]diazepin-6-yl)acetamide hydrochloride] | +++ (the degrading capacity was reduced by 70% or more)
15 | Cc1sc2c(c1C)C(c1ccc(Cl)cc1)=N[C@@H](CC(=O)NCC#Cc1ccc(C#CCN)cc1)c1nnc(C)n1-2.Cl [4-128′] | ++ (the degrading capacity was reduced by 40% to 70% (exclusive of 70))
16 | Cc1sc2c(c1C)C(c1ccc(Cl)cc1)=N[C@@H](CC(=O)NCC#Cc1ccc(C#CCN)o1)c1nnc(C)n1-2.Cl [4-1′, (S)—N-(3-(5-(3-aminoprop-1-yn-1-yl)furan-2-yl)prop-2-yn-1-yl)-2-(4-(4-chlorophenyl)-2,3,9-trimethyl-6H-thieno[3,2-f][1,2,4]triazolo[4,3-a][1,4]diazepin-6-yl)acetamide hydrochloride] | ++ (the degrading capacity was reduced by 40% to 70% (exclusive of 70))
17 | COC(=O)c1ccc(N2CC3CN(C(=O)C[C@@H]4N=C(c5ccc(Cl)cc5)c5c(sc(C)c5C)-n5c(C)nnc54)CC3C2)cc1C#CCN (stereo partly drawn) [5-44′, methyl 2-(3-aminoprop-1-yn-1-yl)-4-(5-(2-((S)-4-(4-chlorophenyl)-2,3,9-trimethyl-6H-thieno[3,2-f][1,2,4]triazolo[4,3-a][1,4]diazepin-6-yl)acetyl)hexahydropyrrolo[3,4-c]pyrrol-2(1H)-yl)benzoate trifluoroacetic acid] | ++ (the degrading capacity was reduced by 40% to 70% (exclusive of 70))
